Source: US20240041832A1, “METHODS AND COMPOSITIONS FOR TREATING EYE DISEASES” (JENIVISION INC., priority 2021, published 2024)
Blank lines part the entries; values can stand above or below the molecule they belong to.

Legend:
[1] = Biodistribution of Beta-Carotene after periorbital skin administration (Example 4); format: in vivo, cynomolgus monkeys; conditions: for concentration at 3 h / concentration at 0.5 h / concentration at 6 h / concentration at 24 h: cynomolgus monkey, topical; for concentration at 3 h: 507.6 μg/left eye
Procedure: [The procedure below names another target; the source lists this target under the same test.] (§1) This is supported by results obtained with a markedly different compound docosahexaenoic acid (DHA), which are shown in Table 2. An oil solution comprising 14.85 mg/mL β-Carotene+198.02 mg/ml DHA in linoleic acid was administered to one eye (OD) by circumferential topical application to the periorbital skin that surrounds the anterior portion of the globe. Blood samples (1 mL) and were collected at 0, 0.5, 2, 6, and 24 hours after a single administration to the periorbital skin of the right eye (OD) At each of the above pre-designated time points, one animal was euthanized after blood collection and selected eye tissue samples were collected from both eyes. The following representative tissues were collected; upper eyelid, cornea, retina, and vitreous humor. DHA concentrations in the samples were determined by the LC-MS/MS method. The DHA was administered via NIODP at the dose of 6775.1±92.5 μg per eye (mean±SEM), to the left eye of monkeys in the pharmacokinetics and biodistribution study. Again, for convenience of sample processing, only upper eyelids were collected. Substantial quantities of DHA (>10 μg/g) remained in the upper eyelid/periorbital region, retina, and cornea, at all tested time points of 0.5, 3, 6 and 24-hour post dosing. […] Compared to the BLQ baseline, plasma concentrations of DHA were between 1.2 and 3.1 μg/ml, equivalent to […] (MW 328.5) via NIODP. The plasma Cmax was at 0.5 hours post-dose.
Thus, not all compounds are readily uptaken and distributed to the posterior area of the eye.

[2] = Biodistribution of DHA after periorbital skin administration (Example 4); format: in vivo, cynomolgus monkeys; conditions: for concentration at 0.5 h / concentration at 24 h / concentration at 3 h / concentration at 6 h: cynomolgus monkey, topical; for concentration at 0.5 h: 6567.89 μg/left eye; for concentration at 24 h: 6746.51 μg/left eye; for concentration at 3 h: 6768.26 μg/left eye; for concentration at 6 h: 7017.66 μg/left eye
Procedure: as §1

[3] = 0.5 h, 492.59 μg/left eye periorbital skin
[4] = 3 h, 507.60 μg/left eye periorbital skin
[5] = 6 h, 526.32 μg/left eye periorbital skin
[6] = 24 h, 505.99 μg/left eye periorbital skin
[7] = 0.5 h, 6567.89 μg/left eye periorbital skin
[8] = 3 h, 6768.26 μg/left eye periorbital skin
[9] = 6 h, 7017.66 μg/left eye periorbital skin
[10] = 24 h, 6746.51 μg/left eye periorbital skin

% of administered dose, Left cornea [1, 3]: 0.000%
% of administered dose, Left retina [1, 3]: 0.000%
% of administered dose, Left upper eyelid [1, 3]: 0.19%
% of administered dose, Left vitreous humor [1, 3]: 0.000%
Drug Concentration in Plasma ([1]; 0.5 h, 492.59 μg/left eye periorbital skin, animal 101): BLQ
% of administered dose, Left cornea [1, 4]: 0.000%
% of administered dose, Left retina [1, 4]: 0.000%
% of administered dose, Left upper eyelid [1, 4]: 0.44%
% of administered dose, Left vitreous humor [1, 4]: 0.000%
Drug Concentration in Plasma ([1]; 3 h, 507.60 μg/left eye periorbital skin, animal 102): BLQ
% of administered dose, Left cornea [1, 5]: 0.000%
% of administered dose, Left retina [1, 5]: 0.000%
% of administered dose, Left upper eyelid [1, 5]: 0.000%
% of administered dose, Left vitreous humor [1, 5]: 0.000%
Drug Concentration in Plasma ([1]; 6 h, 526.32 μg/left eye periorbital skin, animal 103): BLQ
% of administered dose, Left cornea [1, 6]: 0.000%
% of administered dose, Left retina [1, 6]: 0.000%
% of administered dose, Left upper eyelid [1, 6]: 0.000%
% of administered dose, Left vitreous humor [1, 6]: 0.000%
Drug Concentration in Plasma ([1]; 24 h, 505.99 μg/left eye periorbital skin, animal 104): BLQ
concentration at 3 h ([1]; cornea, 3 h, 507.60 μg/left eye periorbital skin, read-out: Drug Concentration in Tissue, Cornea): 0 ng/g
concentration at 0.5 h ([1]; cornea, 0.5 h, 492.59 μg/left eye periorbital skin, read-out: Drug Concentration in Tissue, Cornea): 0 ng/g
concentration at 6 h ([1]; cornea, 6 h, 526.32 μg/left eye periorbital skin, read-out: Drug Concentration in Tissue, Cornea): 0 ng/g
concentration at 24 h ([1]; cornea, 24 h, 505.99 μg/left eye periorbital skin, read-out: Drug Concentration in Tissue, Cornea): 0 ng/g
concentration at 3 h ([1]; retina, 3 h, 507.60 μg/left eye periorbital skin, read-out: Drug Concentration in Tissue, Retina): 0 ng/g
concentration at 0.5 h ([1]; retina, 0.5 h, 492.59 μg/left eye periorbital skin, read-out: Drug Concentration in Tissue, Retina): 0 ng/g
concentration at 6 h ([1]; retina, 6 h, 526.32 μg/left eye periorbital skin, read-out: Drug Concentration in Tissue, Retina): 0 ng/g
concentration at 24 h ([1]; retina, 24 h, 505.99 μg/left eye periorbital skin, read-out: Drug Concentration in Tissue, Retina): 0 ng/g
concentration at 3 h ([1]; upper eyelid, 3 h, 507.60 μg/left eye periorbital skin, read-out: Drug Concentration in Tissue, Upper eyelid): 36000 ng/g
concentration at 0.5 h ([1]; upper eyelid, 0.5 h, 492.59 μg/left eye periorbital skin, read-out: Drug Concentration in Tissue, Upper eyelid): 12600 ng/g
concentration at 6 h ([1]; upper eyelid, 6 h, 526.32 μg/left eye periorbital skin, read-out: Drug Concentration in Tissue, Upper eyelid): 0 ng/g
concentration at 24 h ([1]; upper eyelid, 24 h, 505.99 μg/left eye periorbital skin, read-out: Drug Concentration in Tissue, Upper eyelid): 0 ng/g
concentration at 3 h ([1]; vitreous humor, 3 h, 507.60 μg/left eye periorbital skin, read-out: Drug Concentration in Tissue, Vitreous humor): 0 ng/g
concentration at 0.5 h ([1]; vitreous humor, 0.5 h, 492.59 μg/left eye periorbital skin, read-out: Drug Concentration in Tissue, Vitreous humor): 0 ng/g
concentration at 6 h ([1]; vitreous humor, 6 h, 526.32 μg/left eye periorbital skin, read-out: Drug Concentration in Tissue, Vitreous humor): 0 ng/g
concentration at 24 h ([1]; vitreous humor, 24 h, 505.99 μg/left eye periorbital skin, read-out: Drug Concentration in Tissue, Vitreous humor): 0 ng/g
Compound: CC1=C(/C=C/C(C)=C/C=C/C(C)=C/C=C/C=C(C)/C=C/C=C(C)/C=C/C2=C(C)CCCC2(C)C)C(C)(C)CCC1 [Beta-Carotene, β-Carotene]
uptake and biodistribution following periorbital administration ([1]; compared with DHA in the same formulation): not as readily uptaken and biodistributed

maximum in retina ([2]; 0.5-hour post dosing): 111 µg/g
% of administered dose, Left cornea [2, 7]: 0.03%
% of administered dose, Left retina [2, 7]: 0.04%
% of administered dose, Left upper eyelid [2, 7]: 0.42%
% of administered dose, Left vitreous humor [2, 7]: 0.00%
Drug Concentration in Plasma ([2]; 0.5 h, 6567.89 μg/left eye periorbital skin, animal 101): 2160 ng/mL
% of administered dose, Left cornea [2, 8]: 0.01%
% of administered dose, Left retina [2, 8]: 0.04%
% of administered dose, Left upper eyelid [2, 8]: 0.38%
% of administered dose, Left vitreous humor [2, 8]: 0.00%
Drug Concentration in Plasma ([2]; 3 h, 6768.26 μg/left eye periorbital skin, animal 102): 3130 ng/mL
% of administered dose, Left cornea [2, 9]: 0.01%
% of administered dose, Left retina [2, 9]: 0.01%
% of administered dose, Left upper eyelid [2, 9]: 0.01%
% of administered dose, Left vitreous humor [2, 9]: 0.00%
Drug Concentration in Plasma ([2]; 6 h, 7017.66 μg/left eye periorbital skin, animal 103): 2110 ng/mL
% of administered dose, Left cornea [2, 10]: 0.02%
% of administered dose, Left retina [2, 10]: 0.03%
% of administered dose, Left upper eyelid [2, 10]: 0.02%
% of administered dose, Left vitreous humor [2, 10]: 0.00%
Drug Concentration in Plasma ([2]; 24 h, 6746.51 μg/left eye periorbital skin, animal 104): 1150 ng/mL
DHA in vitreous humor ([2]; LLOQ 0.5 μg/ml): below the limit of quantification (BLQ)
DHA in upper eyelid/periorbital region, retina and cornea ([2]; all tested time points of 0.5, 3, 6 and 24-hour, NIODP 6775.1±92.5 μg per eye): > 10 µg/g
concentration at 0.5 h ([2]; left cornea, 0.5 h, 6567.89 μg/left eye periorbital skin, read-out: Drug Concentration in Tissue, Left cornea): 66300 ng/g
concentration at 24 h ([2]; left cornea, 24 h, 6746.51 μg/left eye periorbital skin, read-out: Drug Concentration in Tissue, Left cornea): 25900 ng/g
concentration at 3 h ([2]; left cornea, 3 h, 6768.26 μg/left eye periorbital skin, read-out: Drug Concentration in Tissue, Left cornea): 21600 ng/g
concentration at 6 h ([2]; left cornea, 6 h, 7017.66 μg/left eye periorbital skin, read-out: Drug Concentration in Tissue, Left cornea): 22300 ng/g
concentration at 0.5 h ([2]; left retina, 0.5 h, 6567.89 μg/left eye periorbital skin, read-out: Drug Concentration in Tissue, Left retina): 111000 ng/g
concentration at 24 h ([2]; left retina, 24 h, 6746.51 μg/left eye periorbital skin, read-out: Drug Concentration in Tissue, Left retina): 47300 ng/g
concentration at 3 h ([2]; left retina, 3 h, 6768.26 μg/left eye periorbital skin, read-out: Drug Concentration in Tissue, Left retina): 66700 ng/g
concentration at 6 h ([2]; left retina, 6 h, 7017.66 μg/left eye periorbital skin, read-out: Drug Concentration in Tissue, Left retina): 78600 ng/g
concentration at 0.5 h ([2]; left upper eyelid, 0.5 h, 6567.89 μg/left eye periorbital skin, read-out: Drug Concentration in Tissue, Left upper eyelid): 381000 ng/g
concentration at 24 h ([2]; left upper eyelid, 24 h, 6746.51 μg/left eye periorbital skin, read-out: Drug Concentration in Tissue, Left upper eyelid): 16200 ng/g
concentration at 3 h ([2]; left upper eyelid, 3 h, 6768.26 μg/left eye periorbital skin, read-out: Drug Concentration in Tissue, Left upper eyelid): 420000 ng/g
concentration at 6 h ([2]; left upper eyelid, 6 h, 7017.66 μg/left eye periorbital skin, read-out: Drug Concentration in Tissue, Left upper eyelid): 10700 ng/g
concentration at 0.5 h ([2]; left vitreous humor, 0.5 h, 6567.89 μg/left eye periorbital skin, BLQ given 0, read-out: Drug Concentration in Tissue, Left vitreous humor): 0 ng/g
concentration at 24 h ([2]; left vitreous humor, 24 h, 6746.51 μg/left eye periorbital skin, BLQ given 0, read-out: Drug Concentration in Tissue, Left vitreous humor): 0 ng/g
concentration at 3 h ([2]; left vitreous humor, 3 h, 6768.26 μg/left eye periorbital skin, BLQ given 0, read-out: Drug Concentration in Tissue, Left vitreous humor): 0 ng/g
concentration at 6 h ([2]; left vitreous humor, 6 h, 7017.66 μg/left eye periorbital skin, BLQ given 0, read-out: Drug Concentration in Tissue, Left vitreous humor): 0 ng/g
concentration at 0.5 h ([2]; plasma, 0.5 h, 6567.89 μg/left eye periorbital skin, animal 101, read-out: Drug Concentration in Plasma): 2200 ng/mL
concentration at 24 h ([2]; plasma, 24 h, 6746.51 μg/left eye periorbital skin, animal 104, read-out: Drug Concentration in Plasma): 1200 ng/mL
concentration at 3 h ([2]; plasma, 3 h, 6768.26 μg/left eye periorbital skin, animal 102, read-out: Drug Concentration in Plasma): 3100 ng/mL
concentration at 6 h ([2]; plasma, 6 h, 7017.66 μg/left eye periorbital skin, animal 103, read-out: Drug Concentration in Plasma): 2100 ng/mL
dose gradient via NIODP ([2]; periorbital skin): eyelid≈retina>cornea>>vitreous humor=0
Compound: CC/C=C\C/C=C\C/C=C\C/C=C\C/C=C\C/C=C\CCC(=O)O [DHA, docosahexaenoic acid]
